Values quoted from earlier work in PMC10994248 (The Oncologist, 2024).

Tested on: FGFR2 fusion or rearranged cholangiocarcinoma
Settings: after failure of first-line chemotherapy ref 20-22; cited from earlier work

Compound	Objective response rate [%]
CCN1C(=O)N(c2c(F)c(OC)cc(OC)c2F)Cc2cnc3[nH]c(CN4CCOCC4)cc3c21 [pemigatinib]	36
CCN1CCN(c2ccc(Nc3cc(N(C)C(=O)Nc4c(Cl)c(OC)cc(OC)c4Cl)ncn3)cc2)CC1 [infigratinib]	23
